Like-named read-outs stand apart in the source and are kept apart here.
Experiments:
[1] = tested on: THLE or HepG2 cells, isolated mitochondria, BSEP; details: cited from earlier work
[2] = Phase 3 clinical trials; ref Aleo et al. 2019; cited from earlier work
[3] = cited from earlier work
HepG2 cells [4] = details: In vitro Assay; ref O'Brien 2006; cited from earlier work
[5] = cited from earlier work; remark: listed apart in the source
HepG2 cells [6] = details: In vitro Assay; ref Tolosa 2012; cited from earlier work
PHH [7] = details: cited from earlier work
HepG2 [8] = details: cited from earlier work
HepG2 [9] = details: cited from earlier work; remark: listed apart in the source
human hepatocytes = details: cited from earlier work
rBsep = details: In vitro Assay; ref Dawson 2012; cited from earlier work
[10] = tested on: isolated mouse liver mitochondria; details: In vitro Assay; ref Porceddu 2012; cited from earlier work
HepG2 [11] = tested on: HepG2; set-up: method as in Albrecht 2019; details: In vitro Assay; ref Albrecht 2019; cited from earlier work
HepaRG cells = details: cited from earlier work
PHH spheroids = details: cited from earlier work
HepaRG spheroids = assay: Combined HCI (HCS) and cellular ATP 3D assay in HepaRG spheroids; details: for AC50 / minimal effective concentration: Homo sapiens
hLiMTs [12] = details: cited from earlier work
[13] = Plasma free fraction (fu) and unbound Cmax (Cmax,u); format: in vitro ADME, human; details: unbound plasma Cmax
[14] = tested on: primary human hepatocytes, NIH3T3 fibroblasts, BSEP, CYP3A4; details: cited from earlier work
[15] = plasma free fraction; cited from earlier work
[16] = read-out: Human plasma Cmax; total plasma Cmax.tot, median of 9 literature references; cited from earlier work
hLiMTs [17] = assay: Combined HCI (HCS) and cellular ATP 3D assay in hLiMTs; details: for AC50 / minimal effective concentration: Homo sapiens
PHH [18] = details: cited from earlier work; remark: listed apart in the source
[19] = In vitro Assay, ref Albrecht 2019
[20] = Microtissue model structural based (HCI), combined HCS and ATP, MEC < 25 × Cmax.tot cut-off
[21] = In vitro Assay, ref Schadt 2015

Cc1cc(OCCCS(C)(=O)=O)cc(C)c1-c1cccc(COc2ccc3c(c2)OC[C@H]3CC(=O)O)c1 [TAK-875, reference compound]
Partition HRM hybrid scoring model classification ([1]; ref Aleo et al. 2019): DILI concern | clinical liver finding [2]: liver injury

CC(=O)N[C@@H](CS)C(=O)O [acetylcysteine]
In vivo DILI ([3]; ref Albrecht 2019): -VE | In vivo DILI ([3]; ref O'Brien 2006): -VE | In vivo DILI ([3]; ref Tolosa 2012): -VE | Structural based (HCI) (HepG2 cells [4]): +VE (lowest HCI endpoint IC50 (or in the absence of dose–response < 100 µM) < 30 × total human plasma exposure levels (Cmax.tot)) | DILI +VE (5-8), DILI -VE (-4) ([5]; ref Chen 2016): -VE | DILI severity category ([5]; ref Chen 2016): vNo-DILI-Concern | Structural based (HCI) (HepG2 cells [6]): -VE | Cytotoxicity PHH 48 hrs (PHH [7]; [19]): -VE | Cytotoxicity HepG2 48 hrs (HepG2 [8]; [19]): -VE

O=C1O[C@H]([C@@H](O)CO)C(O)=C1O [ascorbic acid]
Cytotoxicity PHH 48 hrs (PHH [7]; [19]): -VE | Cytotoxicity HepG2 48 hrs (HepG2 [8]; [19]): -VE

C[S+](C)[O-] [dimethylsulfoxide]
In vivo DILI ([3]; in vivo): -VE | Cytotoxicity PHH 48 hrs (PHH [7]): -VE | Cytotoxicity HepG2 48 hrs (HepG2 [8]): -VE

CCO [ethanol]
Cytotoxicity PHH 48 hrs (PHH [7]): +VE | Cytotoxicity HepG2 48 hrs (HepG2 [8]): +VE

OC[C@H]1OC(O)[C@H](O)[C@@H](O)[C@@H]1O (some centres unmarked) [glucose, reference compound]
Cytotoxicity HepG2 48 hrs (HepG2 [9]; [19]): +VE | Cytotoxicity PHH 48 hrs (PHH [7]; [19]): +VE

COc1ccc2[nH]cc(CCNC(C)=O)c2c1 [melatonin]
Structural based (HCI) (human hepatocytes; In vitro Assay, ref Xu 2008): -VE | Cytotoxicity PHH 48 hrs (PHH [7]; [19]): -VE | Cytotoxicity HepG2 48 hrs (HepG2 [8]; [19]): -VE

COC(=O)c1ccc(O)cc1 [methylparaben]
In vivo DILI ([3]; in vivo): -VE | Cytotoxicity HepG2 48 hrs (HepG2 [9]): -VE | Cytotoxicity PHH 48 hrs (PHH [7]): -VE

CO[C@H]1/C=C/O[C@@]2(C)Oc3c(C)c(O)c4c(O)c(c(/C=N/N5CCN(C)CC5)c(O)c4c3C2=O)NC(=O)/C(C)=C\C=C\[C@H](C)[C@H](O)[C@@H](C)[C@@H](O)[C@@H](C)[C@H](OC(C)=O)[C@@H]1C [rifampicin, reference compound]
In vivo DILI ([3]; ref Albrecht 2019): +VE | In vivo DILI ([3]; ref Dawson 2012): +VE | In vivo DILI ([3]; ref Gustafsson 2014): +VE | In vivo DILI ([3]; ref O'Brien 2006): +VE | In vivo DILI ([3]; ref Porceddu 2012): +VE | In vivo DILI ([3]; ref Schadt 2015): +VE | In vivo DILI ([3]; ref Tolosa 2012): +VE | Inhibition of rBsep cutoff<1& cmax u>.2 (rBsep): +VE | Inhibition of rBsep cutoff<3 (rBsep): +VE | Structural based (HCI) (HepG2 cells [4]): +VE | in vitro data EC2<=1x Cmax [10]: +VE | in vitro data EC20<=2uM [10]: -VE | Structural based (HCI) (HepG2 cells [6]): +VE | Cytotoxicity HepG2 48 hrs (HepG2 [11]): +VE | Cytotoxicity PHH 48 hrs (PHH [7]; [19]): +VE | DILI identification by high-throughput transcriptomics (HepaRG cells; HepaRG cells, BMCs in relation to 10 × human Cmax.tot, ref National Toxicology Program): identified | DILI in vitro assay prediction, Vorrink (2018) (PHH spheroids; PHH spheroids, ATP, 14 days, IC20 < 20 × Cmax.tot, ref Vorrink et al. 2018): identified

Oc1cc(Cl)ccc1Oc1ccc(Cl)cc1Cl [triclosan]
In vivo DILI ([3]; ref Albrecht 2019): -VE | Cytotoxicity HepG2 48 hrs (HepG2 [9]; [19]): +VE | Cytotoxicity PHH 48 hrs (PHH [7]; [19]): -VE

N[C@@H]1[C@H]2CN(c3nc4c(cc3F)c(=O)c(C(=O)O)cn4-c3ccc(F)cc3F)C[C@@H]12 [trovafloxacin]
HepaRG <25x Avg Cmax ATP (HepaRG spheroids; HepaRG, ATP endpoint, cut-off <25x Avg Cmax): +ve | HepaRG <100x Avg Cmaxu ATP (HepaRG spheroids; HepaRG, ATP endpoint, cut-off <100x Avg Cmaxu): +ve (<100x Avg Cmaxu) | HepaRG <25x Avg Cmax HCS (HepaRG spheroids; HepaRG, HCS endpoints, cut-off <25x Avg Cmax): +ve | HepaRG <100x Avg Cmaxu HCS (HepaRG spheroids; HepaRG, HCS endpoints, cut-off <100x Avg Cmaxu): +ve (<100x Avg Cmaxu) | HepaRG <25x Avg Cmax All (HepaRG spheroids; HepaRG, all endpoints (ATP and HCS), cut-off <25x Avg Cmax): +ve | HepaRG Cmax max All (HepaRG spheroids; HepaRG, all endpoints, Cmax max used): +ve | HepaRG Cmax min All (HepaRG spheroids; HepaRG, all endpoints, Cmax min used): +ve | HepaRG <10 uM All (HepaRG spheroids; HepaRG, all endpoints, cut-off <10 uM): +ve (<10 uM) | HepaRG <100x Avg Cmaxu All (HepaRG spheroids; HepaRG, all endpoints, cut-off <100x Avg Cmaxu): +ve (<100x Avg Cmaxu) | AC50 (HepaRG spheroids; HepaRG, read-out: ATP endpoint AC50): 12.9 µM | minimal effective concentration (HepaRG spheroids; HepaRG, read-out: ATP endpoint MEC): 7.27 µM | AC50 (HepaRG spheroids; HepaRG, read-out: HCS endpoint AC50): 24.9 µM | minimal effective concentration (HepaRG spheroids; HepaRG, read-out: HCS endpoint MEC): 17.5 µM | DILI prediction HepaRG spheroids (HCS-MEC) (HepaRG spheroids; [20]): +VE (MEC < 25 × Cmax.tot cut-off) | hLiMTs ATP <100uM (hLiMTs [12]): -VE | hLiMTs/100uM, Proctor (2017) (hLiMTs [12]): -VE | Human plasma Cmax,u [13]: 1.205 µM | Assigned DILI category ([3]; in vivo): 3 | In vivo DILI ([3]; in vivo): +VE | Structural based (HCI) (human hepatocytes): +VE | DILI in vitro assay prediction, Schadt (2015) ([14]; BSEP & Metabolism based, ref Schadt et al. 2015): -VE | Cellular toxicity (3T3 cells) [14, 21]: -VE | Combined Assay [14, 21]: -VE | GSH adduct HML [14, 21]: -VE | Hepatocyte cellular toxicity [14, 21]: -VE | MitoTox 3T3 [14, 21]: -VE | TDI CYP3A4 [14, 21]: -VE | hBSEP inhibition [14, 21]: -VE | Rule of Two hybrid HRM Score ≥3, Aleo (2019) [1]: +VE (key: +VE: Rule of Two hybrid HRM Score ≥3) | Rule of Two hybrid HRM Score ≥8, Aleo (2019) [1]: -VE | fu [15]: 0.240 | Cmax [16]: 5.02 µM | AC50 (hLiMTs [17]; read-out: ATP endpoint AC50): 29.4 µM | minimal effective concentration (hLiMTs [17]; read-out: ATP endpoint MEC): 16.4 µM | AC50 (hLiMTs [17]; read-out: HCS endpoint AC50): 38.9 µM | minimal effective concentration (hLiMTs [17]; read-out: HCS endpoint MEC): 20.1 µM | DILI prediction hLiMTs (HCS-MEC) (hLiMTs [17]; [20]): +VE (MEC < 25 × Cmax.tot cut-off) | hLiMTs <25x Avg Cmax ATP (hLiMTs [17]; hLiMTs, ATP endpoint, cut-off <25x Avg Cmax): +ve | hLiMTs <100x Avg Cmaxu ATP (hLiMTs [17]; hLiMTs, ATP endpoint, cut-off <100x Avg Cmaxu): +ve (<100x Avg Cmaxu) | hLiMTs <25x Avg Cmax HCS (hLiMTs [17]; hLiMTs, HCS endpoints, cut-off <25x Avg Cmax): +ve | hLiMTs <100x Avg Cmaxu HCS (hLiMTs [17]; hLiMTs, HCS endpoints, cut-off <100x Avg Cmaxu): +ve (<100x Avg Cmaxu) | hLiMTs <25x Avg Cmax All (hLiMTs [17]; hLiMTs, all endpoints (ATP and HCS), cut-off <25x Avg Cmax): +ve | hLiMTs Cmax max All (hLiMTs [17]; hLiMTs, all endpoints, Cmax max used): +ve | hLiMTs Cmax min All (hLiMTs [17]; hLiMTs, all endpoints, Cmax min used): +ve | hLiMTs <10 uM All (hLiMTs [17]; hLiMTs, all endpoints, cut-off <10 uM): -ve | hLiMTs <100x Avg Cmaxu All (hLiMTs [17]; hLiMTs, all endpoints, cut-off <100x Avg Cmaxu): +ve (<100x Avg Cmaxu) | DILI +VE (5-8), DILI -VE (-4) ([5]; in vivo): +VE | DILI severity category (Chen et al. [2016]) ([5]; in vivo): Most | DILI identification by high-throughput transcriptomics (HepaRG cells): identified | PHH ATP <100uM (PHH [18]): -VE | PHH/100uM, Proctor (2017) (PHH [18]): -VE | DILI in vitro assay prediction, Vorrink (2018) (PHH spheroids): identified
